Earlier results as cited in patent US20230312703A1, “Method of Treating Psoriasis with IL-23 Specific Antibody” (Janssen Biotech, Inc., priority 2022, published 2023).
Several values for one entry are separate records, joined by “and”; a condition that tells them apart may be missing. Equal values may be shown once. Read-outs that look alike come from different tables or passages of the source.

Key:
[1] = system: participants with psoriasis; conditions: Week 16; ESTEEM2
[2] = system: participants with psoriasis; conditions: Week 16; ESTEEM1
[3] = system: participants with psoriasis; conditions: ADVANCE (apremilast arm of cross-study comparison)
[4] = system: participants with psoriasis; conditions: Week 16, VOYAGE 1 & 2
[5] = system: participants with psoriasis
[6] = system: participants with psoriasis; remark: listed apart in the source
[7] = system: participants with psoriasis; conditions: Week 16; VOYAGE 2

Compound | Proportion of participants who achieve a PASI 90 response [1] | Proportion of participants who achieve a PASI 90 response [2] | Proportion of participants who achieve a ss-IGA score of 0 or 1 with ≥2-grade improvement from baseline among randomized participants with scalp psoriasis and an ss-IGA score ≥2 at baseline [2] | Proportion of participants who achieve an Static Physician Global Assessment (sPGA) score of 0 or 1 with at least ≥2 grade improvement from baseline at Week 16 (BSA 2-15%) [3] | Proportion of participants who achieve an IGA score of 0 or 1 with ≥2 grade improvement from baseline (BSA 10-15%) [4] | Proportion of participants who achieve an IGA score of clear (0) at Week 16 (BSA >=10%) ([5]; VOYAGE 1, BSA >=10%) | Change in PSSD Symptom score from baseline: Mean (SD) ([5]; Week 16, VOYAGE 1) | Percent improvement in NAPSI score from baseline: Mean (SD) ([5]; Week 16, VOYAGE 1) | Proportion of participants who achieve a PASI 90 response ([5]; Week 16, VOYAGE 1) | Proportion of participants who achieve a PASI 100 response ([5]; Week 16, VOYAGE 1) | Proportion of participants who achieve a ss-IGA score of 0 or 1 with ≥2-grade improvement from baseline among randomized participants with scalp psoriasis and an ss-IGA score ≥2 at baseline ([5]; Week 16, VOYAGE 1) | Proportion of participants with ≥4-point reduction (improvement) in PSSD Itch score from baseline among participants with a PSSD Itch score ≥4 at baseline ([5]; Week 16, VOYAGE 1) | Proportion of participants who achieve an Static Physician Global Assessment (sPGA) score of 0 or 1 with at least ≥2 grade improvement from baseline at Week 16 (BSA 2-15%) ([6]; DISCOVER 1 & 2 (guselkumab arm of cross-study comparison)) | Proportion of participants who achieve an IGA score of 0 or 1 with ≥2 grade improvement from baseline (BSA 3-15%) ([6]; Week 16, DISCOVER 1 & 2, BSA 3-15%) | Proportion of participants who achieve a PASI 90 response [7]
CCOc1cc([C@@H](CS(C)(=O)=O)N2C(=O)c3cccc(NC(C)=O)c3C2=O)ccc1OC [Apremilast] | 8.8% | 9.8% | 46.5% | 21.6% | – | – | – | – | – | – | – | – | – | – | –
Guselkumab: fully human IgG1 lambda monoclonal antibody that binds the p19 subunit of human IL-23; heavy chain SEQ ID NO: 9, light chain SEQ ID NO: 10 | – | – | – | – | 82.9% vs 9.1% | 47.7% vs 1.1% | −41.9 (24.61) vs | 34.37 (42.448) vs Percent | 73.3% vs 2.9% and 73.3% | 37.4% vs 0.6% | 83.4% vs 14.5% and 83.4% | 75.0% vs 5.7% | 55.7% | 55.7% vs 12.2% | 70.0% vs 2.4%
